Assay results from patent US20230346670A1, “Prebiotic Oral Care Compositions and Methods” (Colgate-Palmolive Company, priority 2020, published 2023).
Values joined by “and” are separate entries in the source; they are usually repeats but may differ in a detail not shown here. Equal values may be shown once.

Key:
[1] = tested on: multi-species biofilms; assay: Organic acid levels in supernatant of multi-species biofilms (ion chromatography); type: cell-based; details: >0 production, <0 consumption, n = 3
Procedure: Biofilms are grown vertically on Calcium Deficient Hydroxyapatite (CAD-HA) disks (Hitemco Medical, Old Bethpage, USA) using the Amsterdam Active Adhesion model. Biofilms are allowed to establish during 24 h (37° C., 170 rpm) under microaerophilic conditions (6% O2, 7% CO2, 7% H2, 80% N2). After this 24 h, disks are rinsed 3 times a day for 3 minutes (RT, 250 rpm), for 3 consecutive days, by transferring the lid containing the disks to a new 24-well plate containing 2 mL/well of the appropriate substrate solution. As a negative control, PBS (pH 5.7) without substrate supplementation is used.
Levels of organic acids in the filter sterilized supernatant of the multi-species biofilms are measured using a 761 Compact Ion Chromatograph (Metrhohm, Switzerland) with a Metrosep Organic acids Guard/4.6 guard column. The supernatants from the substrate-treated multi-species biofilms are analyzed to gain more insight into the influence of the substrates on organic acid consumption/production.

[2] = tested on: human oral keratinocytes (HOK-18A); assay: IL-8 levels in supernatant of keratinocytes exposed to substrate-treated biofilms; type: cell-based; details: biofilms treated with substrate 1 M; n = 3
Procedure: Cultures of immortalized human oral keratinocytes (HOK-18A) are grown. […] The IL-8 levels in the cellular supernatant are determined as well. RNA is converted to cDNA and relative expression of inflammatory mediator genes is determined as described above with respect to the cellular housekeeping gene β-actin.

[3] = substrate 1 M, listed as α-D-lactose
[4] = substrate 1 M, listed as D-(+)-raffinose
[5] = substrate 1 M, listed as D-(+)-trehalose

SMILES | acetate level in biofilm supernatant, mean ± SD ([1]; substrate 1% (w/v)) [mg/L] | butyrate level in biofilm supernatant, mean ± SD ([1]; substrate 1% (w/v)) [mg/L] | formate level in biofilm supernatant, mean ± SD ([1]; substrate 1% (w/v)) [mg/L] | lactate level in biofilm supernatant, mean ± SD ([1]; substrate 1% (w/v)) [mg/L] | propionate level in biofilm supernatant, mean ± SD ([1]; substrate 1% (w/v)) [mg/L] | acetate level in biofilm supernatant, mean ± SD ([1]; substrate 1 M) | butyrate level in biofilm supernatant, mean ± SD ([1]; substrate 1 M) | formate level in biofilm supernatant, mean ± SD ([1]; substrate 1 M) | lactate level in biofilm supernatant, mean ± SD ([1]; substrate 1 M) | propionate level in biofilm supernatant, mean ± SD ([1]; substrate 1 M) | also measured
OC[C@H]1O[C@@H](O[C@H]2[C@H](O)[C@@H](O)[C@@H](O)O[C@@H]2CO)[C@H](O)[C@@H](O)[C@H]1O [D-lactose, α-D-lactose] | 367 ± 33 | 2061 ± 121 | 3929 ± 253 | -125 ± 0 | 2140 ± 141 | 881 ± 73^∗ mg/L | 0±0^∗ mg/L | 84 ± 9^∗ mg/L | 3791 ± 169^∗ mg/L | 1306 ± 175^∗ mg/L | acetate level in biofilm supernatant, mean ± SD [1, 3]: 881 ± 73 mg/L; butyrate level in biofilm supernatant, mean ± SD [1, 3]: 0 ± 0 mg/L; formate level in biofilm supernatant, mean ± SD [1, 3]: 84 ± 9 mg/L; lactate level in biofilm supernatant, mean ± SD [1, 3]: 3791 ± 169 mg/L; propionate level in biofilm supernatant, mean ± SD [1, 3]: 1306 ± 175 mg/L; Mean ± SD IL-8 levels in HOK-18A supernatant [2]: < LOD^∗
OC[C@H]1O[C@H](OC[C@H]2O[C@H](O[C@]3(CO)O[C@H](CO)[C@@H](O)[C@@H]3O)[C@H](O)[C@@H](O)[C@@H]2O)[C@H](O)[C@@H](O)[C@H]1O [D-raffinose, D-(+)-raffinose] | 380 ± 23 | 2003 ± 81 | 3748 ± 197 | -125 ± 0 | 2033 ± 48 | 2640 ± 154^∗ mg/L | 154 ± 26^∗ mg/L | 344 ± 25^∗ mg/L | 971 ± 43^∗ mg/L | 4178 ± 105^∗ mg/L | acetate level in biofilm supernatant, mean ± SD [1, 4]: 2640 ± 154 mg/L; butyrate level in biofilm supernatant, mean ± SD [1, 4]: 154 ± 26 mg/L; lactate level in biofilm supernatant, mean ± SD [1, 4]: 971 ± 43 mg/L; propionate level in biofilm supernatant, mean ± SD [1, 4]: 4178 ± 105 mg/L
OC[C@H]1O[C@H](O[C@H]2O[C@H](CO)[C@@H](O)[C@H](O)[C@H]2O)[C@H](O)[C@@H](O)[C@@H]1O [D-trehalose, D-(+)-trehalose] | 303 ± 13 | 1945 ± 9 | 3691 ± 89 | -125 ± 0 | 1962 ± 8 | 1021 ± 41^∗ mg/L | 0±0^∗ mg/L | 75 ± 8^∗ mg/L | 4187 ± 200^∗ mg/L | 1577 ± 46^∗ mg/L | acetate level in biofilm supernatant, mean ± SD [1, 5]: 1021 ± 73 mg/L; butyrate level in biofilm supernatant, mean ± SD [1, 5]: 0 ± 0 mg/L; formate level in biofilm supernatant, mean ± SD [1, 5]: 75 ± 8 mg/L; lactate level in biofilm supernatant, mean ± SD [1, 5]: 4187 ± 200 mg/L; propionate level in biofilm supernatant, mean ± SD [1, 5]: 1577 ± 46 mg/L
CC(=O)N[C@H]1C(O)O[C@H](CO)[C@@H](O)[C@@H]1O (stereo partly drawn) [NADG, N-acetyl-D-glucosamine] | 379 ± 10 | 2238 ± 59 | 4315 ± 198 | -125 ± 0 | 2205 ± 89 | 3815 ± 77 mg/L | 1255±51 mg/L and 1255 ± 51^∗ mg/L | 352 ± 18 mg/L | -125 ± 0 mg/L | 2750±40 mg/L and 2750 ± 40^∗ mg/L | –
